Test results reported in patent US9598401B2, “Substituted heteroaryl compounds and methods of use thereof” (Sunshine Lake Pharma Co., Ltd., priority 2013, dated 2017).

Key:
dopamine D2S receptor = dopamine D2S receptor (Homo sapiens (Human), UniProt P14416); assay: Affinity for human dopamine D2S receptor ([3H]methyl-spiperone binding); settings: 0.3 nM [3H]methyl-spiperone, cell membrane homogenates, 22° C., 60 minutes
Protocol: Cell membrane homogenates (24 μg protein) were incubated at 22° C. for 60 minutes with 0.3 nM [3H]methyl-spiperone in the absence or presence of the test compound in a buffer solution containing 50 mM Tris-HCl (pH 7.4), 120 mM NaCl, 5 mM KCl, 5 mM MgCl2 and 1 mM EDTA.
The non-specific binding value was determined by incubating the same mixture in the presence of 10 μM (+)butaclamol.
Following the incubation, the samples were filtered rapidly under vacuum through glass fiber filter (GF/B, Packard) presoaked with 0.3% PEI and rinsed several times with ice-cold 50 mM Tris-HCl using a 96-sample cell harvester (Unifilter, Packard). The filters were dried and the retained radioactivity was measured in a scintillation counter (Topcount, Packard) using a scintillation cocktail (Microscint 0, Packard).
The experimental results were expressed as a percent inhibition of the control radioligand specific binding, and Ki was the inhibition constant. The standard reference compound was (+)butaclamol, which was tested in each experiment at several concentrations to obtain a competition curve from which its IC50 was calculated, and then Ki value was calculated by ChengPrusoff equation.

serotonin transporter = serotonin transporter (Rattus norvegicus (Rat), UniProt P31652); assay: Inhibitory effect on [3H]5-HT uptake in rat synaptosome; assay type: biochemical; settings: rat brain synaptosomes, 37° C., 15 minutes, 0.1 μCi [3H]5-HT
serotonin transporter, sequence (P31652 whole entry): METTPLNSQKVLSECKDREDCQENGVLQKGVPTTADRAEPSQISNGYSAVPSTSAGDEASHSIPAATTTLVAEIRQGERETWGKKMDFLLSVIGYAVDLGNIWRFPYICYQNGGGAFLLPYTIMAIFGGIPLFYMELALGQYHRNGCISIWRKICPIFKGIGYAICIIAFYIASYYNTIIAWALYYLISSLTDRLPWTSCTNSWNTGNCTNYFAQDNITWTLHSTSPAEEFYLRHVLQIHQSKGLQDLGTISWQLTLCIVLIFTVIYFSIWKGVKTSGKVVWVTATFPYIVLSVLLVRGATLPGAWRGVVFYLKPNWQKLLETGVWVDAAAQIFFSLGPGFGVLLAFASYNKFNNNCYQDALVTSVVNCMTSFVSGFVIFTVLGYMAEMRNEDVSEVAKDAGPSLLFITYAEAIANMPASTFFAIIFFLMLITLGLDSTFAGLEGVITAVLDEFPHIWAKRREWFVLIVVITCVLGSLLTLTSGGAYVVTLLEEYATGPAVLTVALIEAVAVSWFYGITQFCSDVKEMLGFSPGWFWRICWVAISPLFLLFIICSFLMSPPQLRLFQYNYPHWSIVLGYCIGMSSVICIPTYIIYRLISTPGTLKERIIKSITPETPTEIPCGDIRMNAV
Protocol: The synaptosomes (150 μg) prepared from the rat brain were incubated at 37° C. for 15 minutes with 0.1 μCi [^3H]5-HT in the absence or presence of the test compound or the reference compound in a buffer solution containing 106.2 mM NaCl, 4.5 mM KCl, 2.25 mM MgSO4, 1.08 mM NaH2PO4, 22.5 mM NaHCO3, 9.9 mM glucose, 9 μM EGTA and 45 μM ascorbic acid (pH 7.4).
Inhibition of serotonin transporter in rat synaptosome was measured by the concentrations of [^3H]5-HT.

5-HT1A receptor = 5-HT1A receptor (Homo sapiens (Human), UniProt P08908); assay: Affinity for human 5-HT1A receptor ([3H]8-OH-DPAT binding, HEK-293 cell homogenates); settings: read-out: Ki, binding affinity for 5-HT1A receptor; 0.3 nM [3H]8-OH-DPAT, human HEK-293 cell homogenates, 22° C., 60 minutes;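 note: Filter-retained radioactivity counted by scintillation, non-specific binding defined with 10 µM 8-OH-DPAT, Ki derived from percent inhibition of specific radioligand binding versus control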
5-HT1A receptor, sequence (P08908 whole entry): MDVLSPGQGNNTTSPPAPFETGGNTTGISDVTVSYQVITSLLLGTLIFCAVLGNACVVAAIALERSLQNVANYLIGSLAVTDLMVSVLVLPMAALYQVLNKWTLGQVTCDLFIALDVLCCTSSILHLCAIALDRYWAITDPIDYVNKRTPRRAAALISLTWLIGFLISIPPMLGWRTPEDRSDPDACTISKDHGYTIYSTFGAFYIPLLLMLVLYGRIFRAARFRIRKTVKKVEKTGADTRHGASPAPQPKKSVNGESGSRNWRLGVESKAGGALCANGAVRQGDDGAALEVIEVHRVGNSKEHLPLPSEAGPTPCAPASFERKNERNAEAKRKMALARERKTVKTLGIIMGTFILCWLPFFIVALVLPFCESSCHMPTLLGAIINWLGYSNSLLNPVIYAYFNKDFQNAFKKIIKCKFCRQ
Protocol: The non-specific binding value was determined by incubating the same mixture in the presence of 10 μM 8-OH-DPAT, which was used as the standard reference compound and tested in each experiment at several concentrations to obtain a competition curve.
Following the incubation, the samples were filtered rapidly under vacuum through glass fiber filter (GF/B, Packard) presoaked with 0.3% PEI and rinsed several times with ice-cold 50 mM Tris-HCl using a 96-sample cell harvester (Unifilter, Packard). The filters were dried and the retained radioactivity was measured in a scintillation counter (Topcount, Packard) using a scintillation cocktail (Microscint 0, Packard). The experimental results were expressed as a percent inhibition of the control radioligand specific binding, and Ki was the inhibition constant.

dopamine D2S receptor, sequence (P14416 other isoform, or with tags, fused parts or gaps): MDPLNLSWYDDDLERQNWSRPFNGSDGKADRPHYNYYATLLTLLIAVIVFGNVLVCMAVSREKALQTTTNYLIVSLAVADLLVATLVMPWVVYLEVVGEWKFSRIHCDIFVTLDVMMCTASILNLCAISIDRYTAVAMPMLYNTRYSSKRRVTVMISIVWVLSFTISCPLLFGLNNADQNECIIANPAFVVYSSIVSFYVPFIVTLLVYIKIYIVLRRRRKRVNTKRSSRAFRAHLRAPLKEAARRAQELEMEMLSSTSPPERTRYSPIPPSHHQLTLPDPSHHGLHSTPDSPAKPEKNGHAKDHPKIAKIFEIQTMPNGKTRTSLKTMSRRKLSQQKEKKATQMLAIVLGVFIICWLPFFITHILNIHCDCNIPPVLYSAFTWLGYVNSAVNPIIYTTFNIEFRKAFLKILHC

| SMILES | Ki (dopamine D2S receptor) [nM] | IC50 (serotonin transporter) [nM] | Ki (5-HT1A receptor) [nM] |
| --- | --- | --- | --- |
| N#Cc1ccc2[nH]cc(CCCCN3CCN(c4nccc(C(N)=O)n4)CC3)c2c1 [Example 28, 2-(4-(4-(5-Cyano-1H-indol-3-yl)butyl)piperazin-1-yl)pyrimidine-4-carboxamide] | 310 | 1 | 10 |
| Cc1cc(C)nc(N2CCN(CCCc3c[nH]c4ccccc34)CC2)n1 [Example 16, 3-(3-(4-(4,6-Dimethylpyrimidin-2-yl)piperazin-1-yl)propyl)-1H-indole] | 110 | 53 | 4.1 |
| COc1cc(OC)nc(N2CCN(CCCCc3c[nH]c4ccc(F)cc34)CC2)n1 [Example 4, 3-(4-(4-(4,6-Dimethoxypyrimidin-2-yl)piperazin-1-yl)butyl)-5-fluoro-1H-indole] | 110 | 6.4 | 2.8 |
| NC(=O)c1ccnc(N2CCN(CCCc3c[nH]c4ccc(F)cc34)CC2)n1 [Example 29, 2-(4-(3-(5-Fluoro-1H-indol-3-yl)propyl)piperazin-1-yl)pyrimidine-4-carboxamide] | 230 | 1.4 | 12 |
| NC(=O)c1ccnc(N2CCN(CCCCc3c[nH]c4ccc(F)cc34)CC2)n1 [Example 27, 2-(4-(4-(5-Fluoro-1H-indol-3-yl)butyl)piperazin-1-yl)pyrimidine-4-carboxamide] | > 1000 | 2.7 | 60 |
| CCOC(=O)c1sc(N2CCN(CCCc3c[nH]c4ccc(F)cc34)CC2)nc1C [Example 38, Ethyl 2-(4-(3-(5-fluoro-1H-indol-3-yl)propyl)piperazin-1-yl)-4-methylthiazole-5-carboxylate] | 270 | 11 | 0.27 |
| Cc1nc(N2CCN(CCCCc3c[nH]c4ccc(F)cc34)CC2)sc1C#N [Example 45, 2-(4-(4-(5-Fluoro-1H-indol-3-yl)butyl)piperazin-1-yl)-4-methylthiazole-5-carbonitrile] | > 1000 | 8.3 | 14 |
| N#Cc1ccc2[nH]cc(CCCN3CCN(c4nccc(C#N)n4)CC3)c2c1 [Example 26, 3-(3-(4-(4-Cyanopyrimidin-2-yl)piperazin-1-yl)propyl)-1H-indole-5-carbonitrile] | 190 | 2.6 | 8 |
| CCOC(=O)c1sc(N2CCN(CCCc3c[nH]c4ccc(C#N)cc34)CC2)nc1C [Example 40, Ethyl 2-(4-(3-(5-cyano-1H-indol-3-yl)propyl)piperazin-1-yl)-4-methylthiazole-5-carboxylate] | > 1000 | 3.5 | 0.3 |
| COc1cc(OC)nc(N2CCN(CCCc3c[nH]c4ccc(C#N)cc34)CC2)n1 [Example 10, 3-(3-(4-(4,6-Dimethoxypyrimidin-2-yl)piperazin-1-yl)propyl)-1H-indole-5-carbonitrile] | 200 | 3.6 | 1.3 |
| Cc1nc(N2CCN(CCCc3c[nH]c4ccc(F)cc34)CC2)sc1C(N)=O [Example 42, 2-(4-(3-(5-Fluoro-1H-indol-3-yl)propyl)piperazin-1-yl)-4-methylthiazole-5-carboxamide] | 310 | 5.3 | 4.5 |
| Cc1nc(N2CCN(CCCCc3c[nH]c4ccc(C#N)cc34)CC2)sc1C#N [Example 47, 2-(4-(4-(5-Cyano-1H-indol-3-yl)butyl)piperazin-1-yl)-4-methylthiazole-5-carbonitrile] | 130 | 1.5 | 5 |
| Cc1nc(N2CCN(CCCc3c[nH]c4ccc(C#N)cc34)CC2)sc1C(N)=O [Example 44, 2-(4-(3-(5-Cyano-1H-indol-3-yl)propyl)piperazin-1-yl)-4-methylthiazole-5-carboxamide] | > 1000 | 4.3 | 3.7 |
| Cc1nc(N2CCN(CCCCc3c[nH]c4ccc(F)cc34)CC2)sc1C(N)=O [Example 41, 2-(4-(4-(5-Fluoro-1H-indol-3-yl)butyl)piperazin-1-yl)-4-methylthiazole-5-carboxamide] | 140 | 2.4 | 23 |
